In US4048334A, “Active derivatives of methylamino in therapeutic compositions and methods of use” (priority 1974, dated 1977):
Entries after “also recorded” stand apart in the source; their conditions may differ.

What was measured:
[1] = tested on: reserpine-induced catatonia; test: Inhibition of reserpine-induced catatonia; format: in vivo, rat (male, OFA strain)
Experimental: 1. Inhibition of reserpine-induced catatonia
After sufficient doses of reserpine have been administered to the rat, a series of symptoms occur, more particularly ptosis, catatonia and a drop in central temperature. These symptoms are caused by the depletion of the intragranular reserve pool of boigenetic amines at the synaptic terminals.
An oral dose of the compound to be studied in aqueous solution was administered to batches of 10 male rats of the OFA strain weighing about 150 to 200 g. Thirty minutes later a dose of 5 mg/kg of reserpine was given by intraperitoneal route. Three hours after the injection of reserpine, the animals were suspended by the four paws to a horizontally stretched wire fixed at 15 cm from the ground. The catatonic animals were those which maintained the position so given for at least 30 seconds. […] The maximum score was therefore 10 per batch. An identical trial was undertaken with control animals which received reserpine but none of the compounds being studied.

[2] = tested on: neuroleptic-induced catatonia; test: Inhibition of neuroleptic-induced catatonia (prochlorperazine); format: in vivo, rat (male, OFA strain)
Experimental: 2. Inhibition of neuroleptic-induced catatonia
The blocking of dopaminergic receptors by neuroleptics in the extra-pyramidal system induces catatonia in the rat. Catatonia is differentiated from sedative properties by means of the test used hereabove for reserpine-induced catatonia. The same system of scoring was also employed in the present case.
An oral dose of the compound to be studied in aqueous solution was administered to batches of 10 male rats of the OFA strain weighing about 150 to 200 g. […] Three hours after the injection of this latter compound, catatonia was measured. An identical trial was also carried out with control animals which received prochlorperazine but none of the compounds under study.
The scoring system, used was that given hereabove in Table I.

[3] = in vivo; details: mouse, mice, oral, aqueous solution, 10 days observation
[4] = tested on: catalepsy; test: Inhibition of catalepsy (crossing of homolateral paws, prochlorperazine); format: in vivo, rat; details: 5 mg/kg oral, 30 min before prochlorperazine i.p., 3 hours after
Experimental: Additional trials were carried out on rats with Compound 1 and amantadine. These trials involved catalepsy as evidenced by the crossing of the animals' homolateral paws.

[5] = tested on: reserpine-induced catatonia; test: Suppression of reserpine-induced catatonia (curative treatment); format: in vivo, rat (male, OFA strain); design: key to catatonia score (maximum 5 per batch): number of animals (of 5) still in catatonia; max 5 per batch
Experimental: a. Suppression of reserpine-induced catatonia
Batches of 5 male rats of the OFA strain, weighing 150 to 200 g were given 5 mg/kg of reserpine by intraperitoneal route. One hour and 45 minutes later, namely when the animals were in a state of catatonia, an aqueous dose of the compound to be studied was administered by oral route to all the animals with the exception of the control group.
The progress of the catatonia was then noted following the scale used in the tests described hereabove.
The maximum score was thus 5 per batch which means that all the animals of the batch were considered to be still in a state of catatonia.

[6] = tested on: isolated duodenum of the rat; test: MAGNUS test: inhibition of acetylcholine spasm (cholinolytic / spasmolytic activity in vitro)
From the text: This test consists in determining the dose of acetylcholine which, when added to the bath, provokes spasm of the isolated duodenum of the rat. The next step consists in determining the dose of the compound under study which, when added to the bath 30 seconds before the acetylcholine, reduces the spasm.

[7] = tested on: tremorine-induced cholinergic effects; test: Anti-tremorine test (cholinolytic properties in vivo); design: species or system mice (male, OF1 strain); key to peripheral cholinergic effects score (salivation, sweating, weeping): 0: no action; 1: slight action; 2: average action; 3: strong action; 4: very strong action
Experimental: For this purpose, the following test was performed with a view to determining the anti-tremorine properties of Compound 1.
When injected into mice, tremorine produces peripheral effects i.e. weeping, sweating, salivation and diarrhoea and central effects i.e. tremor and akinesia. Such effects are due to an increase in the amount of intracerebral acetylcholine and serotonine.
Male mice of the OF1 strain weighing about 22 g were divided into batches of 10. […] Thirty minutes later a dose of 10 mg/kg of tremorine was injected by intraperitoneal route and, at different times after this injection, note was taken of the cholinergic effects on each animal in accordance with the following scale: […]

[8] = tested on: electrocardiogram; test: Effect on the electrocardiogram; format: in vivo; details: dog, in vivo; listed as preferred compound of the invention
[9] = Emetic action; format: in vivo; details: dog, any dose
From the text: Furthermore, the compounds of the invention have no emetic action in the dog at any doses and are not cholinolytic agents.

[10] = tested on: reserpine-induced and neuroleptic-induced catatonia and catalepsy; test: Central noradrenergic and dopaminergic properties (general statement); details: in vivo
From the text: These latter properties manifest themselves by an inhibitory action on reserpine-induced and neuroleptic-induced catatonia and catalepsy.

[11] = SPERBER et al., J. Amer. Chem. Soc., 71, 3352 (1949); cited from earlier work
[12] = tested on: peripheral noradrenergic phenomena (arterial pressure, nictitating membrane); test: Influence on peripheral noradrenergic phenomena (norepinephrine, arterial pressure and nictitating membrane)

Compound: CCCC(N)(CCC)CCC [Compound 1]
- Inhibition of reserpine-induced catatonia ([1]; 5 mg/kg oral, 30 min before reserpine 5 mg/kg i.p.): 4 (100% inhibition of catatonia in comparison with the controls (namely a score of 0 per studied batch))
- activity (dose) compared with amantadine, reserpine-induced catatonia ([1]; versus amantadine): as active as amantadine but at a dose which is twenty times inferior to that of amantadine
- Inhibition of the neuroleptic-induced catatonia ([2]; 1 mg/kg): 70%
- Inhibition of the neuroleptic-induced catatonia ([2]; 5 mg/kg oral, 30 min before prochlorperazine 12.5 mg/kg i.p.): 4 (100% inhibition of catatonia in comparison with the controls (namely a score of 0 per studied batch))
- activity compared with amantadine, neuroleptic-induced catatonia ([2]; versus amantadine): twenty times more active than amantadine
- LD50 at 240 h [3]: 100 mg/kg
- inhibition of the catalepsy [4]: complete inhibition of the catalepsy
- catatonia score (maximum 5 per batch) ([5]; 2.5 mg/kg oral, 2h15 after reserpine): 3
- catatonia score (maximum 5 per batch) ([5]; 2.5 mg/kg oral, 2h30 after reserpine): 2
- catatonia score (maximum 5 per batch) ([5]; 2.5 mg/kg oral, 3h30 after reserpine): 0
- catatonia score (maximum 5 per batch) ([5]; 2.5 mg/kg oral, 2h after reserpine): 4
- catatonia score (maximum 5 per batch) ([5]; 2.5 mg/kg oral, 3h after reserpine): 0
- catatonia score (maximum 5 per batch) ([5]; 2.5 mg/kg oral, 4h after reserpine): 0
- catatonia score (maximum 5 per batch) ([5]; 2.5 mg/kg oral, 5h after reserpine): 0
- catatonia score (maximum 5 per batch) ([5]; 5 mg/kg oral, 2h15 after reserpine): 1
- catatonia score (maximum 5 per batch) ([5]; 5 mg/kg oral, 2h30 after reserpine): 0
- catatonia score (maximum 5 per batch) ([5]; 5 mg/kg oral, 3h30 after reserpine): 0
- catatonia score (maximum 5 per batch) ([5]; 5 mg/kg oral, 2h after reserpine): 5
- catatonia score (maximum 5 per batch) ([5]; 5 mg/kg oral, 3h after reserpine): 0
- catatonia score (maximum 5 per batch) ([5]; 5 mg/kg oral, 4h after reserpine): 0
- catatonia score (maximum 5 per batch) ([5]; 5 mg/kg oral, 5h after reserpine): 0
- rapidity of suppression of reserpine-induced catatonia ([5]; 2.5 and 5 mg/kg oral versus amantadine 80 mg/kg): suppresses reserpine-induced catatonia more rapidly than a dose of 80 mg/kg of amantadine
- times more active than amantadine, reserpine-induced catatonia, curative treatment ([5]; versus amantadine): at least 32 times
- spasmolytic activity in vitro [6]: very weak, in fact practically non-existent
- % of inhibition of the spasm ([6]; 0.1 × 10^-3 g/ml of bath): 0%
- % of inhibition of the spasm ([6]; 0.1 × 10^-4 g/ml of bath): 0%
- % of inhibition of the spasm ([6]; 0.1 × 10^-5 g/ml of bath): 0%
- % of inhibition of the spasm ([6]; 0.2 × 10^-2 g/ml of bath): 36%
- % of inhibition of the spasm ([6]; 0.2 × 10^-6 g/ml of bath): 0%
- % of inhibition of the spasm ([6]; 0.5 × 10^-2 g/ml of bath): 60%
- cholinolytic activity in vitro ([6]; in comparison with atropine): virtually non-existent
- peripheral cholinergic effects score (salivation, sweating, weeping) ([7]; 5 mg/kg oral, 20, 30 and 40 minutes after tremorine 10 mg/kg i.p.): 4
- central cholinergic effects (normal and provoked tremor) ([7]; 5 mg/kg oral, identical to the peripheral score (4)): Identical results
- antitremorine properties ([7]; mouse, in vivo): devoid of antitremorine properties
- effect on the electrocardiogram [8]: does not cause any undesirable effect on the electrocardiogram; also recorded: devoid of emetic properties and of undesirable side-effects on the electrocardiogram
- emetic action [9]: devoid of emetic properties
- degree of activity [10]: marked degree of activity
- spasmolytic activity and toxicity versus corresponding trialkylethylamines [11]: less spasmolytic and more toxic than the corresponding trialkylethylamines
- Contractile reaction of the nictitating membrane with electric stimulation ([12]; cumulative dose 0.1 mg/kg i.v.): 15 mm
- Contractile reaction of the nictitating membrane without electric stimulation ([12]; cumulative dose 0.1 mg/kg i.v.): 0 mm
- Increase in arterial pressure after injection of norepinephrine ([12]; cumulative dose 0.1 mg/kg i.v.): 18 mm Hg
- Contractile reaction of the nictitating membrane with electric stimulation ([12]; cumulative dose 1 mg/kg i.v.): 16 mm
- Contractile reaction of the nictitating membrane without electric stimulation ([12]; cumulative dose 1 mg/kg i.v.): 0 mm
- Increase in arterial pressure after injection of norepinephrine ([12]; cumulative dose 1 mg/kg i.v.): 25 mm Hg
- Contractile reaction of the nictitating membrane with electric stimulation ([12]; cumulative dose 3 mg/kg i.v.): 17 mm
- Contractile reaction of the nictitating membrane without electric stimulation ([12]; cumulative dose 3 mg/kg i.v.): 0 mm
- Increase in arterial pressure after injection of norepinephrine ([12]; cumulative dose 3 mg/kg i.v.): 29 mm Hg
- Contractile reaction of the nictitating membrane with electric stimulation ([12]; cumulative dose 5 mg/kg i.v.): 16 mm
- Contractile reaction of the nictitating membrane without electric stimulation ([12]; cumulative dose 5 mg/kg i.v.): 0 mm
- Increase in arterial pressure after injection of norepinephrine ([12]; cumulative dose 5 mg/kg i.v.): 25 mm Hg
- Contractile reaction of the nictitating membrane with electric stimulation ([12]; cumulative dose 10 mg/kg i.v.): 12 mm
- Contractile reaction of the nictitating membrane without electric stimulation ([12]; cumulative dose 10 mg/kg i.v.): 0 mm
- Increase in arterial pressure after injection of norepinephrine ([12]; cumulative dose 10 mg/kg i.v.): 22 mm Hg
- ganglioplegic action ([12]; in vivo): is not a ganglioplegic agent
- potentiation of (peripheral) effects of norepinephrine ([12]; in vivo): does not potentiate the effects either of exogenous norepinephrine or of endogenous norepinephrine
- potentiation of (peripheral) effects of norepinephrine ([12]; in vivo, listed as preferred compound of the invention): does not potentiate the peripheral effects of norepinephrine
